# Measurements reported in patent US10906876B2, “Tetrahydroisoquinolines as selective NADPH oxidase 2 inhibitors” (University of Pittsburgh—Of the Commonwealth System of …, priority 2013, dated 2021).
# Like-named read-outs stand apart in the source and are kept apart here.
# Key:
# Nox2 = target: T1, Nox2 (Homo sapiens, UniProt P04839); test: Cell-free superoxide production in lysed COS-Nox2 cells / Nox2 cell homogenate, cytochrome C assay; type: biochemical
# T1 construct: expressed in transfected cells
# T1 sequence (P04839 2-570 limits assumed): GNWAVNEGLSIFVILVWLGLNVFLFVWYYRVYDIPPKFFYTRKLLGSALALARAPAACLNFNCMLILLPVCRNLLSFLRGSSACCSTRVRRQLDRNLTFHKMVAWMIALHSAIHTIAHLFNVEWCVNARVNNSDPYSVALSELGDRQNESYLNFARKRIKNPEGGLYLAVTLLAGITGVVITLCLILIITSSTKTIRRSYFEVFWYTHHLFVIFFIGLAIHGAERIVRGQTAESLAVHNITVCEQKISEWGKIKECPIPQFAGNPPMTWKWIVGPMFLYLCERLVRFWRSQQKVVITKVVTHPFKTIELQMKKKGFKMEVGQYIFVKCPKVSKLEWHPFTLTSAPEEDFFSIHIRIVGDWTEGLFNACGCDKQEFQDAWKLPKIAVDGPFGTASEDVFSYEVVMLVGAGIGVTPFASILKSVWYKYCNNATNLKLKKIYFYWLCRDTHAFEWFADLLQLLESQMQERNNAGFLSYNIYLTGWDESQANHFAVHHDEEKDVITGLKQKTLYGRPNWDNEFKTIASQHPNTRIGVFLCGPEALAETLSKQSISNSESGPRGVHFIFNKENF
# Method: COS-Nox2, COS-Nox1/NOXO1/NOXA1 and COS-22 cells were suspended to a concentration of 5×10^7 cells/ml in ice-cold disruption buffer (8 mM potassium, sodium phosphate buffer pH 7.0, 131 mM NaCl, 340 mM sucrose, 2 mM NaN3, 5 mM MgCl2, 1 mM EGTA, 1 mM EDTA and protease inhibitor cocktail) (Price et al., Blood, 2002, 99:2653-2661; Molshanski-Mor et al., Methods Mol. Biol., 2007, 412:385-428). The cells were lysed by freeze/thaw cycles (5 cycles), and passed through a 30-gauge needle 5 times to further lyse the cells. Cell disruption was confirmed by phase contrast microscopy. The cell lysate was centrifuged at 1000×g for 10 min at 4° C. to remove unbroken cells, nuclei and debris. Throughout all procedures, extreme care was taken to maintain the lysate at a temperature close to 0° C. Superoxide (O2^•−) production was calculated from the initial linear rate (over 10 min) of SOD-inhibitable cytochrome c reduction quantified at 550 nm using the extinction coefficient of 21.1 mM^−1 cm^−1 (Biotek Synergy 4 Hybrid Multi-Mode Microplate Reader). The oxidase assay buffer consisted of 65 mM sodium phosphate buffer (pH 7.0), 1 mM EGTA, 10 μM FAD, 1 mM MgCl2, 2 mM NaN3 and 0.2 mM cytochrome C. The components of the cell-free system were added in the following order: oxidase assay buffer, cell lysate (5×10^5 cell equivalents/well) and drugs at a final concentration as shown on individual graphs. The plates were placed on an orbital shaker to mix contents for 5 min at 120 movements/min at room temperature. LiDS, an established lipid activator of phagocyte cell-free system, was added at a concentration of 130 μM and O2^•− production was initiated by the addition of 180 μM NADPH.
# Cell-free activity in lysed COS-Nox2 cells was promising, since compound 7 was also able to inhibit O2^•− production in a system in which assembly of active Nox2 subunits is achieved by treatment with the anionic amphiphile LiDS (lithium dodecyl sulfate) and the reaction is initiated by cofactor NADPH (Molshanski-Mor et al., Methods Mol. Biol. 2007, 412:385-428). COS-Nox2 cell lysate was preincubated with various concentrations of compound 7 for 15 min at 25° C. After the addition of 130 μM LiDS, O2^•− production was initiated by the addition of 180 μM NADPH and measured by the initial linear rate of SOD-inhibitable cytochrome C reduction. O2^•− production is expressed as nmol O2^•−/min/10^7 cell equivalents.
# Cells were suspended to a concentration of 5×10^7 cells/ml in ice-cold disruption buffer (8 mM potassium, sodium phosphate buffer pH 7.0, 131 mM NaCl, 340 mM sucrose, 2 mM NaN3, 5 mM MgCl2, 1 mM EGTA, 1 mM EDTA and protease inhibitor cocktail). The cells were lysed by freeze/thaw cycles (5 cycles), and passed through a 30-gauge needle five times to further lyse the cells. Cell disruption was confirmed by phase contrast microscopy. The cell lysate was centrifuged at 1000×g for 10 min at 4° C. to remove unbroken cells, nuclei and debris. Throughout all procedures, extreme care was taken to maintain the lysate at a temperature close to 0° C.
# Superoxide (O2^•−) production from cell homogenates was calculated from the initial linear rate (over 10 min) of SOD-inhibitable cytochrome c reduction quantified at 550 nm using the extinction coefficient of 21.1 mM-1 cm-1 (Biotek Synergy 4 Hybrid Multi-Mode Microplate Reader). The oxidase assay buffer consisted of 65 mM sodium phosphate buffer (pH 7.0), 1 mM EGTA, 10 μM FAD, 1 mM MgCl2, 2 mM NaN3 and 0.2 mM cytochrome C.
# Bovine milk XO = target: T2, Bovine milk XO (Bos taurus, UniProt P80457); test: Xanthine oxidase assay (Amplex Red); type: biochemical; conditions: compounds at 25 μM and 50 μM (FIG. 4)
# T2 construct: Bovine milk XO (grade 1, ammonium sulfate suspension; Sigma-Aldrich); purchased Sigma-Aldrich; host or cells: bovine milk
# T2 sequence (P80457 whole entry): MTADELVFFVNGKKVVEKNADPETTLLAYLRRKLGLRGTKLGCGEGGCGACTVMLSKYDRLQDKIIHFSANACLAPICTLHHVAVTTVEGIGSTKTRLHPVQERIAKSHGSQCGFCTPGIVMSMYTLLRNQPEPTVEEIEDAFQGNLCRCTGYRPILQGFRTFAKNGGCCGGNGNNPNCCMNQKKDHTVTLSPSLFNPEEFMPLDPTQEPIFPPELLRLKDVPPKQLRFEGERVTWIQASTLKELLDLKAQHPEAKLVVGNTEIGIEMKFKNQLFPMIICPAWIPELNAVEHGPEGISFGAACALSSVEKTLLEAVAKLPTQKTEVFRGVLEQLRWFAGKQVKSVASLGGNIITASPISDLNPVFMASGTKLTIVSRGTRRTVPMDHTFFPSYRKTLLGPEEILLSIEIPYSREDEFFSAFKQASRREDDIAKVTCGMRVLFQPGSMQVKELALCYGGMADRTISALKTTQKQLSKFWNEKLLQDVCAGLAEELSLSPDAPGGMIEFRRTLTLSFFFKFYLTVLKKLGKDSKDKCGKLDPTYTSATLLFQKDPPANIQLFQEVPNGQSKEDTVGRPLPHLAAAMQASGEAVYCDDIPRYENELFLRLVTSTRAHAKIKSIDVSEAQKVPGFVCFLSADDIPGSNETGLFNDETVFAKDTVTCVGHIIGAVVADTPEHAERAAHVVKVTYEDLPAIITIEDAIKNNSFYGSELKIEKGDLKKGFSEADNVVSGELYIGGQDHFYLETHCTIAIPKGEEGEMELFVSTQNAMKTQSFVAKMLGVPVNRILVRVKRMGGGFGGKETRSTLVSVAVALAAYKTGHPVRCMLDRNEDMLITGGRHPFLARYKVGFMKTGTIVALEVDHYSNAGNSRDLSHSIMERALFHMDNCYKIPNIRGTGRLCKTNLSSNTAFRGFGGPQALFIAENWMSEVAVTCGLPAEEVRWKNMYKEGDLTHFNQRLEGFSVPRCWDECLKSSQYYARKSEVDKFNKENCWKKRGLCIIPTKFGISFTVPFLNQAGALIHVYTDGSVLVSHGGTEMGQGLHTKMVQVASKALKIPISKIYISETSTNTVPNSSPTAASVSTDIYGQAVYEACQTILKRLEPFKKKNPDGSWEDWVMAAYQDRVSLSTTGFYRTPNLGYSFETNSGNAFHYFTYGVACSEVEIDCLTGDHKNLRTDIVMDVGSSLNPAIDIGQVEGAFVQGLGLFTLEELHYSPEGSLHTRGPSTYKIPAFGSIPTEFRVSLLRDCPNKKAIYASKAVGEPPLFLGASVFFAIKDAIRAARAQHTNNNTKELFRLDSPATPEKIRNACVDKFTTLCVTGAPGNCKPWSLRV
# Method: Bovine milk XO (grade 1, ammonium sulfate suspension; Sigma-Aldrich) was first desalted using PD-10 columns (Sephadex G-25, GE Healthcare Biosciences, Piscataway, N.J.) equilibrated in PBS. XO activity was assayed by measuring H2O2 production using the Amplex® Red assay. Reaction mixture contained: 0.02 U/mL XO, 25 mM Hepes, pH 7.4, containing 0.12 M NaCl, 3 mM KCl, 1 mM MgCl2, 0.1 mM Amplex® Red, and 0.32 U/mL of horse radish peroxidase (HRP), reaction was initiated by addition of 1 mM hypoxanthine. Fluorescence was quantified over time using a Biotek Synergy 4 Hybrid Multi-Mode Microplate Reader.
# Data are expressed as % of vehicle control.
# human fibroblasts = test: PMA-stimulated ROS production by human fibroblasts; type: cell-based; conditions: 10 μM compound
# Method: Cos-Nox2, Cos-Nox1, human fibroblasts were cultured in DMEM, 10% FBS-supplemented media, human pulmonary artery endothelial cells were cultured in EBM2media containing growth factors (Lonza) and rat neonatal cardiomyocytes were cultured in DMEM/F12 (50/50) media supplemented with 5% horse serum, 100 μM BrdU and Insulin-Transferrin-Selenium (ITS, Gibco).
# Compounds 11g and 11h also were evaluated for potential inhibitory activity in phorbol ester (PMA)-stimulated ROS production by human fibroblasts. As expected PMA, an activator of protein kinase C, stimulated superoxide production. This effect was attenuated by both compounds at a concentration of 10 μM (FIG. 11).
# [1] = cell-free system, data not shown, read-out: IC50 in a cell-free system
SMILES,"LiDS-stimulated O2•− generation (Nox2; 6.3 μM compound, lysed COS-Nox2 cells, 130 μM LiDS, 180 μM NADPH)",Effect on ROS production by xanthine oxidase (Bovine milk XO),"IC50 (Nox2; Nox2 cell homogenate stimulated with LiDS, read-out: IC50 in ROS production by Nox2 cell homogenate)",IC50 (Nox2; [1]),IC50 in cell homogenate lower than that for whole cells (Nox2; homogenate vs whole cells),PMA-stimulated superoxide production (human fibroblasts)
"C=C(C)CC1NC2CC(C)(C)C1c1c(Br)cccc12 (racemic) [Compound 7, (±)-(1S,4R,9S)-5-Bromo-3,3-dimethyl-9-(2-methylallyl)-1,2,3,4-tetrahydro-1,4-(epimino-methano)-naphthalene]",almost non-stimulated levels,,,,,
"C=C(C)CC1C2c3c(Br)cccc3C(CC2(C)C)N1CCCCC (racemic) [Compound 11g, (±)-(1S,4R,9S)-5-Bromo-3,3-dimethyl-9-(2-methylallyl-10-pentyl-1,2,3,4-tetrahydro-1,4-(epiminomethano)naphthalene]",,virtually no effect,32.4 ± 9 nM,~30 nM,100 fold,attenuated
"C=C(C)CC1C2c3c(Br)cccc3C(CC2(C)C)N1Cc1cccs1 (racemic) [Compound 11h, (±)-(1S,4R,9S)-5-Bromo-3,3-dimethyl-9-(2-methylallyl)-10-(thiophen-2-ylmethyl)-1,2,3,4-tetrahydro-1,4-(epiminomethano)naphthalene]",,virtually no effect,,~30 nM,,attenuated
